Measurements as given in publication PMC8158265, “Inhibition of catechol-O-methyltransferase by natural pentacyclic triterpenes: structure–activity relationships and kinetic mechanism” (Journal of Enzyme Inhibition and Medicinal Chemistry, 2021).
Read-outs that look alike come from different tables or passages of the source. One block for each compound: values may come before it.

Assays:
recombinant human S-COMT [1] = molecular target: T1, recombinant human S-COMT (Homo sapiens, UniProt P21964); test: Inhibition kinetics of human S-COMT catalysed O-methylation of 3-BTD; format: biochemical; conditions: for Vmax: 200 μM SAM; for Inhibition type: with respect to 3-BTD (catechol site); for α: global fit of mixed inhibition model
T1 construct: made in house
T1 sequence (P21964 1-221 isoform P21964-2): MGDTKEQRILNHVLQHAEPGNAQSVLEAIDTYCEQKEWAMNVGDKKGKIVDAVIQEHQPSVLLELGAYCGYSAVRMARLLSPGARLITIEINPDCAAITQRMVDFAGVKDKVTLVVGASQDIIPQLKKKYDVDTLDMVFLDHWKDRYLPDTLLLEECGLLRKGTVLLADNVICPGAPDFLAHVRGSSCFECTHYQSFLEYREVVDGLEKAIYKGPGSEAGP

[2] = tested on: mitochondrial membrane potential of LO-2 cells; test: Mitochondrial membrane potential assay (JC-10, high-content imaging); format: cell-based, human; conditions: 24 h
Method: The cells were cultured as described in the Section 2.3. […] To assess the mitochondria membrane potential, JC-10 (5 μg/mL) was incubated with the cells for 30 min, and Hochest (10 μg/mL) was used to stain nuclei. After removal of culture medium and rinsing three times with PBS, cell imaging and quantitative analysis were performed by high-content imaging analysis (Molecular Devices® ImageXpress Micro 4, the USA).

LO-2 cells = test: Cytotoxicity assay (CCK8); format: cell-based, human; conditions: for IC50: Homo sapiens; for cell survival: up to 100 μM
Method: The normal human liver-derived cell line LO-2 were grown in DMEM culture medium supplemented with 10% FBS, penicillin (100 U/mL) and streptomycin ([…]). After culturing to 80% confluence, cells were digested and exactly 100 µL of cell suspension with a cell concentration of 10^4 cells/well was seeded in 96-well plates and incubated in a 5% CO2 humidified atmosphere at 37 °C for 12 h. Then the cells were incubated with 100 μL tested compounds of varying concentrations from 0.25 to 100 μM prepared in FBS-free culture medium for 24 h. Subsequently, CCK-8 was diluted 1:10 with DMEM culture and them was added into the adherent cells and incubated in 37 °C for 2 h. The absorbance at 450 nm was measured by using the multi-mode microplate reader. Cell viability can be calculated by A/A0 × 100% (A and A0 are the absorbance of experimental group and control group, respectively).

recombinant human S-COMT [3] = molecular target: T1, recombinant human S-COMT; test: COMT activity inhibition assay (enzymatic activity based fluorescence assay, 3-BTD substrate); format: biochemical
[4] = apparent Vmax for 3-BTD with 2.5 μM inhibitor
[5] = apparent Vmax for 3-BTD with 5.0 μM inhibitor
[6] = apparent Vmax for 3-BTD with 7.5 μM inhibitor
[7] = L02, LO-2 cells, 24 h, CCK8, read-out: concentration that led to a 50% decrease of cell viability
[8] = 2.0 μg/mL human S-COMT, 2.0 μM 3-BTD as substrate, 200 μM SAM, mean ± SE, read-out: IC50
[9] = 2.0 μg/mL human S-COMT, 2.0 μM 3-BTD as substrate, 200 μM SAM, mean ± SE

IC50 (recombinant human S-COMT [3]; [8]): 15.1 ± 1.35 µM
fold lower inhibitory potency than oleanolic acid (1) (recombinant human S-COMT [3]; ratio of IC50 values): ~3 fold
Compound: C[C@H]1[C@H](C)CC[C@]2(C(=O)O)CC[C@]3(C)C(=CC[C@@H]4[C@@]5(C)CC[C@H](O)C(C)(C)[C@@H]5CC[C@]43C)[C@H]12 [Compound 7, Ursolic acid]

IC50 (recombinant human S-COMT [3]; [8]): 14.2 ± 0.87 µM
Compound: C[C@H]1[C@H](C)CC[C@]2(C)CC[C@]3(C)C(=CC[C@@H]4[C@@]5(C)CC[C@@H](O)[C@](C)(C(=O)O)[C@@H]5CC[C@]43C)[C@H]12 [Compound 9, β-Boswellic acid]

IC50 (recombinant human S-COMT [3]; [9]): N.E.
Compound: C[C@H]1[C@H](C)CC[C@]2(C)CC[C@]3(C)C(=CC(=O)[C@@H]4[C@@]5(C)CC[C@@H](O)[C@](C)(C(=O)O)[C@@H]5CC[C@]43C)[C@H]12 [Compound 10, 11-Keto-β-Boswellic acid]

IC50 (recombinant human S-COMT [3]; [8]): 5.07 ± 0.087 µM
Vmax (recombinant human S-COMT [1]; [4]): 9.97 ± 0.20 nmol/min/mg
Vmax (recombinant human S-COMT [1]; [5]): 8.95 ± 0.22 nmol/min/mg
Vmax (recombinant human S-COMT [1]; [6]): 6.06 ± 0.24 nmol/min/mg
α (recombinant human S-COMT [1]; with respect to 3-BTD): 0.39
Ki (recombinant human S-COMT [1]; global fit, with respect to 3-BTD, saturated SAM, read-out: Ki): 5.6 ± 0.33 µM
Inhibition type (recombinant human S-COMT [1]): Mixed
Compound: C=C(C)[C@@H]1CC[C@]2(C(=O)O)CC[C@]3(C)[C@H](CC[C@@H]4[C@@]5(C)CC[C@H](O)C(C)(C)[C@@H]5CC[C@]43C)[C@@H]12 [Compound 11, Betulinic acid]
IC50 (LO-2 cells; [7]): > 100 µM
cell survival (LO-2 cells; LO-2 cells, CCK8): 95%

IC50 (recombinant human S-COMT [3]; [8]): 7.93 ± 0.47 µM
Compound: C=C(C)[C@@H]1CC[C@]2(C)CC[C@]3(C)[C@H](CC[C@@H]4[C@@]5(C)CC[C@H](O)C(C)(C)[C@@H]5CC[C@]43C)[C@@H]12 [Compound 12, Lupeol]

reduction in COMT-inhibitory potential compared to betulinic acid (11) (recombinant human S-COMT [3]): 50%
IC50 (recombinant human S-COMT [3]; [8]): 9.38 ± 0.37 µM
Compound: C=C(C)[C@@H]1CC[C@]2(C(=O)O)CC[C@]3(C)[C@H](CC[C@@H]4[C@@]5(C)CC[C@@H](O)C(C)(C)[C@@H]5CC[C@]43C)[C@@H]12 [Compound 15, Epibetulinic acid]

IC50 (recombinant human S-COMT [3]; [8]): 11.1 ± 0.51 µM
Compound: C=C(C)[C@@H]1CC[C@]2(C(=O)O)CC[C@]3(C)[C@H](CC[C@@H]4[C@@]5(C)CCC(=O)C(C)(C)[C@@H]5CC[C@]43C)[C@@H]12 [Compound 17, Betulonic acid]

IC50 (recombinant human S-COMT [3]; [8]): 9.57 ± 0.55 µM
Compound: Oc1cc(O)c2c(c1)O[C@H](c1ccc(O)c(O)c1)[C@H](O)C2 [Epicatechin, reference compound]

IC50 (recombinant human S-COMT [3]): 3.23 ± 0.11 µM
Compound: O=c1c(O)c(-c2ccc(O)c(O)c2)oc2cc(O)cc(O)c12 [Quercetin, reference compound]

The remaining lines, values behind:

Compound: CC1(C)CC[C@]2(C(=O)O)CC[C@]3(C)C(=CC[C@@H]4[C@@]5(C)CC[C@H](O)C(C)(C)[C@@H]5CC[C@]43C)[C@@H]2C1 [Compound 1, Oleanic acid]
Vmax (recombinant human S-COMT [1]; [4]): 8.45 ± 0.29 nmol/min/mg
Vmax (recombinant human S-COMT [1]; [5]): 4.56 ± 0.084 nmol/min/mg
Vmax (recombinant human S-COMT [1]; [6]): 2.20 ± 0.030 nmol/min/mg
Inhibition type (recombinant human S-COMT [1]): Mixed
effect on MMP ([2]; at 50 μM): did not display a decrease of MMP
IC50 (LO-2 cells; [7]): > 100 µM
cell survival (LO-2 cells; LO-2 cells, CCK8): 95%

Compound: CC1(C)CC[C@]2(C(=O)O)CC[C@]3(C)C(=CC[C@@H]4[C@@]5(C)CC[C@H](O)[C@@](C)(CO)[C@@H]5CC[C@]43C)[C@@H]2C1 [Compound 2, Hederagenin]
IC50 (recombinant human S-COMT [3]; [8]): 8.37 ± 0.46 µM

Compound: CC1(C)CC[C@]2(C(=O)O)CC[C@]3(C)C(=CC[C@@H]4[C@@]5(C)C[C@@H](O)[C@H](O)C(C)(C)[C@@H]5CC[C@]43C)[C@@H]2C1 [Compound 3, Masline acid]
IC50 (recombinant human S-COMT [3]): 10.6 ± 0.96 µM

Compound: CC1(C)CCC2(C(=O)O)C(O)CC3(C)C(=CCC4C5(C)CC(O)C(O)C(C)(CO)C5CCC43C)C2C1 (stereo not shown) [Compound 4, Polygalacic acid]
IC50 (recombinant human S-COMT [3]; [9]): N.E.

Compound: CC1(C)CC[C@]2(C)CC[C@]3(C)C(=CC[C@@H]4[C@@]5(C)CC[C@@H](O)[C@](C)(C(=O)O)[C@@H]5CC[C@]43C)[C@@H]2C1 [Compound 5, α-Boswellic acid]
IC50 (recombinant human S-COMT [3]; [8]): 29.2 ± 1.65 µM

Compound: CC1(C)[C@@H](O)CC[C@]2(C)[C@H]3C(=O)C=C4[C@@H]5C[C@@](C)(C(=O)O)CC[C@]5(C)CC[C@@]4(C)[C@]3(C)CC[C@@H]12 [Compound 6, Glycyrrhetinic acid]
IC50 (recombinant human S-COMT [3]; [8]): 115 ± 11.6 µM

Compound: C[C@H]1[C@H](C)CC[C@]2(C(=O)O)CC[C@]3(C)C(=CC[C@@H]4[C@@]5(C)C[C@@H](O)[C@H](O)[C@@](C)(CO)[C@@H]5CC[C@]43C)[C@H]12 [Compound 8, Asiatic acid]
IC50 (recombinant human S-COMT [3]): 43.1 ± 5.92 µM

Compound: C=C(C)[C@@H]1CC[C@]2(CO)CC[C@]3(C)[C@H](CC[C@@H]4[C@@]5(C)CC[C@H](O)C(C)(C)[C@@H]5CC[C@]43C)[C@@H]12 [Compound 13, Betulin]
IC50 (recombinant human S-COMT [3]): 8.86 ± 0.46 µM

Compound: C=C(C)[C@@H]1CC[C@]2(C=O)CC[C@]3(C)[C@H](CC[C@@H]4[C@@]5(C)CC[C@H](O)C(C)(C)[C@@H]5CC[C@]43C)[C@@H]12 [Compound 14, Betulinic aldehyde]
IC50 (recombinant human S-COMT [3]; [8]): 10 ± 0.63 µM

Compound: C=C(C)[C@@H]1CC[C@]2(C(=O)O)CC[C@]3(C)[C@H](CC[C@@H]4[C@@]5(C)CC[C@H](O)[C@@](C)(CO)[C@@H]5CC[C@]43C)[C@@H]12 [Compound 16, 23-Hydroxybetulinic acid]
IC50 (recombinant human S-COMT [3]; [8]): 31.4 ± 2.42 µM

Compound: CC1=C(O)C(=O)C=C2C1=CC=C1[C@@]2(C)CC[C@@]2(C)[C@@H]3C[C@](C)(C(=O)O)CC[C@]3(C)CC[C@]12C [Compound 18, Celastrol]
IC50 (recombinant human S-COMT [3]): 3.89 ± 0.15 µM
Ki (recombinant human S-COMT [1]): 3.5 ± 0.51 µM
Vmax (recombinant human S-COMT [1]; [4]): 7.91 ± 0.16 nmol/min/mg
Vmax (recombinant human S-COMT [1]; [5]): 4.39 ± 0.10 nmol/min/mg
Vmax (recombinant human S-COMT [1]; [6]): 2.54 ± 0.047 nmol/min/mg
α (recombinant human S-COMT [1]; with respect to 3-BTD): 0.20
Inhibition type (recombinant human S-COMT [1]): Mixed
IC50 (LO-2 cells; L02, 24 h, read-out: concentration that led to a 50% decrease of cell viability, LO-2 cells, 24 h, CCK8): 2.4 µM
fold more potent cytotoxicity than tolcapone (LO-2 cells; LO-2 cells, CCK8): 12 fold

Compound: Cc1c(O)c(O)cc2c1CC=C1C2(C)CCC2(C)C3CC(C)(C(=O)O)CCC3(C)CCC12C (stereo not shown) [Compound 19, Hydrocelastrol]
IC50 (recombinant human S-COMT [3]): 12.6 ± 0.73 µM

Compound: C[C@H]1C(=O)CC[C@@H]2[C@]1(C)CC[C@H]1[C@@]2(C)CC[C@@]2(C)[C@@H]3CC(C)(C)CC[C@]3(C)CC[C@]12C [Compound 20, Friedelin]
IC50 (recombinant human S-COMT [3]; [9]): N.E.

Compound: CCN(CC)C(=O)/C(C#N)=C/c1cc(O)c(O)c([N+](=O)[O-])c1 [Entacapone, entacapone, reference compound]
IC50 (LO-2 cells; [7]): > 100 µM

Compound: Cc1ccc(C(=O)c2cc(O)c(O)c([N+](=O)[O-])c2)cc1 [Tolcapone, tolcapone, reference compound]
reduction in membrane potential ([2]; 10 μM): 50%
IC50 (LO-2 cells; [7]): 28 to 38 µM
